According to US20180185408A1, “ANTIFUNGAL NYLON-3 POLYMERS AND COMBINATION THERAPY USING THEM TO TREAT FUNGAL INFECTIONS” (priority 2016, published 2018):
Values after ≈ are worked out from the molar mass of the structure shown. Values joined by “and” are separate entries in the source; they are usually repeats but may differ in a detail not shown here. Equal values may be shown once. Read-outs that look alike come from different tables or passages of the source.

How the values were obtained:
Aspergillus fumigatus = assay: Checkerboard microdilution synergy (FIC); type: cell-based; conditions: for MIC: Aspergillus fumigatus
Aspergillus species = assay: MIC100 against 18 species of the Aspergillus genus; type: cell-based, Aspergillus spp.
Excerpt: (§1) We assessed the antifungal activity of MM-TM, DM-TM, and NM against 18 different species within the genus Aspergillus.

Aspergillus terreus = assay: microbe, parasite or virus in culture
A. flavus = assay: MIC100 against species of the Aspergillus genus; type: cell-based; conditions: Aspergillus flavus isolate NRRL3357
Excerpt: as §1

[1] = MM:TM with Itraconazole, isolate F11628 (Resistance), […] 10^5 cells/mL
[2] = MM:TM with Itraconazole, isolate F16216 (Resistance), […] 10^5 cells/mL
[3] = MM:TM with ITRA, isolate 08-12-12-13 Cyp51 [TR34/L98H], Avg., 48 hours, 35° C.
[4] = MM:TM with ITRA, isolate 08-19-02-61 Cyp51 [TR34/L98H], Avg., 48 hours, 35° C.
[5] = MM:TM with ITRA, isolate 08-31-08-91 Cyp51 [TR34/L98H], Avg., 48 hours, 35° C.
[6] = MM:TM with ITRA, isolate 08-36-03-25 Cyp51 [TR34/L98H], Avg., 48 hours, 35° C.
[7] = MM:TM with ITRA, isolate 12-7505220 Cyp51 [TR34/L98H], Avg, 48 hours, 35° C.
[8] = MM:TM with ITRA, isolate 12-7505446 Cyp51 [TR34/L98H], Avg., 48 hours, 35° C.
[9] = MM:TM with ITRA, isolate D5 Cyp51 [G54E], Avg., 48 hours, 35° C.
[10] = MM:TM with ITRA, isolate D6 Cyp51 [G54V], Avg., 48 hours, 35° C.
[11] = MM:TM with ITRA, isolate D9 Cyp51 [M220K], Avg., 48 hours, 35° C.

## CCC(C)n1ncn(-c2ccc(N3CCN(c4ccc(OCC5COC(Cn6cncn6)(c6ccc(Cl)cc6Cl)O5)cc4)CC3)cc2)c1=O (centres unmarked) [Itraconazole, itraconazole]
Aspergillus fumigatus; 08-19-02-61 Cyp51 [TR34/L98H], ITRA in combination with MM:TM, OD600, 48 h, 35° C.
  MIC azole combination: >48 µg/mL and 48 µg/mL
Aspergillus fumigatus; 08-19-02-61 Cyp51 [TR34/L98H], ITRA with MM:TM
  FICazole: 1.000 and 0.500
Aspergillus fumigatus; 08-31-08-91 Cyp51 [TR34/L98H], ITRA in combination with MM:TM, OD600, 48 h, 35° C.
  MIC azole combination: >48 µg/mL
Aspergillus fumigatus; 08-31-08-91 Cyp51 [TR34/L98H], ITRA with MM:TM
  FICazole: 1.000
Aspergillus fumigatus; 08-36-03-25 Cyp51 [TR34/L98H], ITRA in combination with MM:TM, OD600, 48 h, 35° C.
  MIC azole combination: >48 µg/mL
Aspergillus fumigatus; 08-36-03-25 Cyp51 [TR34/L98H], ITRA with MM:TM
  FICazole: 1.000
Aspergillus fumigatus; AF293, ITRA with MM:TM
  FICazole: 0.143 and 0.198 and 0.210
Aspergillus fumigatus; 48 h, CEA10, ITRA as single agent, 35° C.
  MIC: > 1 µg/mL
Aspergillus fumigatus; 48 h, CEA10, MM:TM with Itraconazole, single agent, 48 h, read-out: MIC Alone
  MIC: > 1.4 µM
Aspergillus fumigatus; 48 h, F11628, ITRA as single agent, 35° C.
  MIC: 48 µg/mL
Aspergillus fumigatus; 48 h, F16216, ITRA as single agent, 35° C.
  MIC: 32 µg/mL
Aspergillus fumigatus; 48 h, MM:TM with ITRA, […], Avg., 48 hours, 35° C.
  MIC: 1.06 µM
Aspergillus fumigatus; [1]
  MIC: 48 µg/mL
  FICazole: 0.008
Aspergillus fumigatus; [2]
  MIC: 32 µg/mL
  FICazole: 1.000
Aspergillus fumigatus; CEA10, MM:TM with Itraconazole in combination, 48 h
  MIC Combined: 0.3 µM
Aspergillus fumigatus; D5 Cyp51 [G54E], ITRA in combination with MM:TM, OD600, 48 h, 35° C.
  MIC azole combination: >48 µg/mL
Aspergillus fumigatus; D5 Cyp51 [G54E], ITRA with MM:TM
  FICazole: 1.000
Aspergillus fumigatus; D7 Cyp51 [WT], ITRA in combination with MM:TM, OD600, 48 h, 35° C.
  MIC azole combination: 0.19 µg/mL and 0.375 µg/mL
Aspergillus fumigatus; D7 Cyp51 [WT], ITRA with MM:TM
  FICazole: 0.253 and 0.500
Aspergillus fumigatus; D9 Cyp51 [M220K], ITRA in combination with MM:TM, OD600, 48 h, 35° C.
  MIC azole combination: >48 µg/mL
Aspergillus fumigatus; D9 Cyp51 [M220K], ITRA with MM:TM
  FICazole: 1.000
Aspergillus fumigatus; F11628, ITRA in combination with MM:TM, OD600, 48 h, 35° C.
  MIC azole combination: 1.06 µM
Aspergillus fumigatus; F16216, ITRA in combination with MM:TM, OD600, 48 h, 35° C.
  MIC azole combination: 85.03 µM
Aspergillus fumigatus; F16216, ITRA with MM:TM
  FICazole: 0.750 and 1.000 and 0.938
Aspergillus fumigatus; MM:TM with ITRA, […], Avg., 48 hours, 35° C.
  MIC azole combination: 0.4 µM
Aspergillus fumigatus; [3]
  FICazole: 0.917
  MIC azole combination: 70.15 µM
Aspergillus fumigatus; [4]
  FICazole: 0.75
  MIC azole combination: 102.04 µM
Aspergillus fumigatus; [5]
  FICazole: 1.000
  MIC azole combination: >68.02 µM
Aspergillus fumigatus; [6]
  FICazole: 1.000
  MIC azole combination: >68.02 µM
Aspergillus fumigatus; [7]
  FICazole: 0.917
  MIC azole combination: 70.15 µM
Aspergillus fumigatus; [8]
  FICazole: 0.035
  MIC azole combination: 0.67 µM
Aspergillus fumigatus; [9]
  FICazole: 1.000
  MIC azole combination: >68.02 µM
Aspergillus fumigatus; [10]
  FICazole: 0.172
  MIC azole combination: 18.96 µM
Aspergillus fumigatus; [11]
  FICazole: 1.000
  MIC azole combination: >68.02 µM
Aspergillus fumigatus; azole-resistant strain F11628
  increase in efficacy in the presence of MM:TM: > 100 fold
Aspergillus species; Aspergillus aculeatus isolate CBS 172.66
  MIC: < 1 µg/mL
Aspergillus species; Aspergillus brasiliensis isolate CBS 101740
  MIC: 64 µg/mL (≈ 90.7 µM)
Aspergillus species; Aspergillus carbonarius isolate DT0115-B6
  MIC: < 1 µg/mL
Aspergillus species; Aspergillus clavatus isolate CBS 513.65
  MIC: 64 µg/mL (≈ 90.7 µM)
Aspergillus species; Aspergillus fumigatus isolate CEA10
  MIC: < 1 µg/mL
Aspergillus species; Aspergillus glaucus isolate CBS 516.65
  MIC: 2 µg/mL (≈ 2.83 µM)
Aspergillus species; Aspergillus nidulans isolate FGSCA4
  MIC: < 1 µg/mL
Aspergillus species; Aspergillus niger isolate CBS 113.46
  MIC: < 1 µg/mL
Aspergillus species; Aspergillus oryzae isolate Rib40
  MIC: 1 µg/mL (≈ 1.42 µM)
Aspergillus species; Aspergillus parasiticus isolate Su-1
  MIC: < 1 µg/mL
Aspergillus species; Aspergillus sydowii isolate CBS 593.65
  MIC: 2 µg/mL (≈ 2.83 µM)
Aspergillus species; Aspergillus terreus isolate NCCB IH2626
  MIC: < 1 µg/mL
Aspergillus species; Aspergillus versicolor isolate CBS 795.97
  MIC: 1 µg/mL (≈ 1.42 µM)
Aspergillus species; Aspergillus wentii isolate DT0136-E9
  MIC: < 1 µg/mL
Aspergillus species; Aspergillus zonatus isolate CBS 506.65
  MIC: < 1 µg/mL
Aspergillus species; Neosartorya fischeri isolate CBS 544.65
  MIC: > 8 µg/mL
Aspergillus terreus
  MIC: 1.4 µM (≈ 0.988 µg/mL)
Aspergillus terreus; 48 h
  MIC: 1 µg/mL and 1.4 µM
A. flavus
  MIC: < 1 µg/mL
